Holding throughout (format): physicochemical
Data set [1] in a line: Degree of (vinyl) conversion (DC) of cured dental adhesive/resin by FT-IR (ATR). To be noted: for Degree of Conversion: resin 70 wt % Bis-GMA / 30 wt % TEGDMA with CQ/4E; for change of Degree of Conversion (in words) / decrease of Degree of Conversion / increase of Degree of Conversion: versus resin without additive; for change of Degree of Conversion (in words) / decrease of Degree of Conversion: Bis-GMA/TEGDMA resin; for increase of Degree of Conversion: 70 wt % Bis-GMA / 30 wt % TEGDMA, CQ/4E; for Degree of Conversion (%): approx 0.25 wt % additive; for effect on DC (in words): both adhesives (SB and B6H4).

Data set [2] can be described thus: Glass transition temperature (Tg) / tan δ peak by dynamic mechanical analysis (DMA). As for the experimental part:
The degree of conversion (DC) and glass transition temperature (Tg) of adhesives and resins with or without the additives (such as Azo-QPS-C16) were measured by Fourier transform infrared (FTIR) spectrometer and dynamic mechanical analyzer (DMA), respectively. The stability against enzymatic challenges of four adhesives (and resins) was evaluated using an atomic force microscopy (AFM)-based method. The adhesives' bonding strength and bonding durability are determined and compared based on shear bond strength (SBS), micro-tensile bond strength (pTBS), and bonding durability under the challenges of thermal cycling.
The glass transition temperature (Tg) of adhesives with or without additive were measured by dynamic mechanical analysis (DMA).

Data set [3] addresses T1, pseudocholine esterase from equine serum (PCE) (Equus caballus, UniProt P81908).
T1 construct: pseudocholine esterase from equine serum; purchased Sigma C7512; host or cells: equine serum
Nature of the data set: Biostability: AFM-based step height change (ΔH) under enzymatic challenge. From the text: Various embodiments of the present application can be better understood by reference to the following Examples which are offered by way of illustration. The scope of the present application is not limited to the Examples given herein. The enzymatic challenge measurement method described herein is described in Wang X, Song S, Chen L, Stafford CM, Sun J, Acta Biomater., 2018, 74, 326, and Yamauchi S, Wang X, Egusa H, Sun J. “High-performance dental adhesives containing an ether-based monomer” Journal of Dental Research, 2020, 99, 189, which are both incorporated by reference herein in their entireties.
Biostability of the dental materials such as resins and adhesives is of critical importance to their durability. These materials may break down in the oral environment, which may be due to enzymatic and/or bacterial challenges, which can result in failure of the restoration and secondary caries. The stability against enzymatic challenges of dental materials including adhesives and resins, with and without additives, was evaluated using an atomic force microscopy (AFM)-based method, described by Wang et al., in “Short-time dental resin biostability and kinetics of enzymatic degradation”, Acta Biomaterialia, Volume 74, 1 Jul. 2018, Pages 326-333, incorporated herein in its entirety. Briefly, this method allows evaluation of materials by assessing the step height (H) and the changes in the step height (ΔH), that are caused by enzymatic exposure. The ΔH values are caused as material exposed to salivary enzymes or the like is removed due to degradation of the exposed material.
The stability of SB was compared to the same adhesive incorporating Azo-QPS-C16 as an additive at approximately 0.25 wt %. Samples were prepared according to the method described by Wang, and were exposed to either pseudocholine esterase from equine serum (PCE, Product No. C7512, Sigma, Saint Louis, MO, USA) were reconstituted in saline solution containing 40 mM magnesium chloride and 99 mM of sodium chloride following vender's instruction, or a control solution without PCE for various times up to 72 hours. […] For the SB sample exposed to PCE, the ΔH value increased to about 175 nm. In comparison, the addition of approximately 0.25 wt % Azo-QPS-C16 reduced the ΔH values after 72 hours to about 50 nm and about 60 nm for the control and PCE-exposed samples, respectively, thus showing inclusion of Azo-QPC-C16 in the adhesive improved the stability dramatically.

The target in data set [4] is T1, pseudocholine esterase from equine serum (PCE). Described as above. The source holds these as a separate data set.
The mark [5] stands for this setting: B6H4, approximately 0.25 wt % additive.

Molecules are shown by their SMILES.

T1 sequence (P81908 whole entry): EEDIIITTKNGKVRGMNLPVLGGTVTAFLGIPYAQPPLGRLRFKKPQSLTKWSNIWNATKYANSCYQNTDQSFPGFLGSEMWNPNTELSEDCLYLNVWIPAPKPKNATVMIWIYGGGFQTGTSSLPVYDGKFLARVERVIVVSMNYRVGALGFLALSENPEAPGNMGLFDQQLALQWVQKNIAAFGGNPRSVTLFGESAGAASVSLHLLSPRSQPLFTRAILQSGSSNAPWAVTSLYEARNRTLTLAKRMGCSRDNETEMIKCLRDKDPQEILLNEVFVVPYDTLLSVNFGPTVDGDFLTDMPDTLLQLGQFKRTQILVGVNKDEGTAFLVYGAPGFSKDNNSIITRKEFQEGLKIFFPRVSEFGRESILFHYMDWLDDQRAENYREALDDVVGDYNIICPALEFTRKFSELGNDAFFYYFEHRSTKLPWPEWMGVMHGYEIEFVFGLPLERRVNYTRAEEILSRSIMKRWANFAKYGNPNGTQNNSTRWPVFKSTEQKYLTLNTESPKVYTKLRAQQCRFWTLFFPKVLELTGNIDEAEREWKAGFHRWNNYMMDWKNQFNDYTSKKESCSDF

Regarding `C=C(C)C(=O)Oc1ccc(/N=N/c2ccncc2)cc1` [Azo-Py-MA, reference compound], the “Degree of Conversion” value in data set [1] (0.5 wt % additive) is 70.2%. Besides, the “change of Degree of Conversion (in words)” value (from here on “change”) in data set [1] is recorded as “no change”.

Turning to `Oc1ccc(/N=N/c2ccncc2)cc1` [Azo-Py-OH, reference compound], the “Degree of Conversion” value in data set [1] (0.5 wt % additive) is recorded as 68.4%. The “decrease of Degree of Conversion” value in data set [1] was 1.8%.

Turning to `CC(C)C(=O)Oc1ccc(/N=N/c2ccncc2)cc1` [Azo-Py-iBu, (E)-4-(pyridin-4-yldiazenyl)phenyl isobutyrate, reference compound], the “Degree of Conversion” value in data set [1] (0.5 wt % additive) is reported as 66.7%. For the same compound, in data set [1], the “decrease of Degree of Conversion” value is recorded as 3.5%.

Take `C=C(C)C(=O)Oc1ccc(/N=N/c2cc[n+](CC)cc2)cc1.[Br-]` [Azo-QPS-C2-MA]: in data set [1] (0.5 wt % additive), the “Degree of Conversion” value worked out at 72.3% and the “increase of Degree of Conversion” value worked out at 2.1%.

With `C=C(C)C(=O)Oc1ccc(/N=N/c2cc[n+](CCCCCCCCCCCCCCCC)cc2)cc1.[Br-]` [Azo-QPS-C16, (E)-1-hexadecyl-4-((4-(methacryloyloxy)phenyl)diazenyl)-pyridinium bromide], the “DC (%)” value in data set [1] (B6H4/CQ/4E, 0.1 wt % additive) is given as 76.9 ± 0.7%; in data set [1] (B6H4/CQ/4E, 0.25 wt % additive), 79.5 ± 0.8%; in data set [1] (B6H4/CQ/4E, 0.5 wt % additive), 80.5 ± 1.2%; in data set [1] (B6H4/CQ/4E, 1.0 wt % additive) it was 81.3 ± 1.4%; in data set [1] (B6H4/CQ/4E, 1.25 wt % additive), 76.2 ± 1.5%; in data set [1] (B6H4/CQ/4E, 1.5 wt % additive), 64.4 ± 2.2%. The “DC (%)” value in data set [1] (B6H4/CQ/4E, 2.0 wt % additive) turned out to be 26.0 ± 2.6%; in data set [1] (Scotchbond Multi-Purpose (SB), 0.1 wt % additive), 76.1 ± 0.8%; in data set [1] (Scotchbond Multi-Purpose (SB), 0.25 wt % additive), 78.6 ± 0.9%; in data set [1] (Scotchbond Multi-Purpose (SB), 0.5 wt % additive), 79.2 ± 1.1%; in data set [1] (Scotchbond Multi-Purpose (SB), 1.0 wt % additive) it was 79.5 ± 1.4%; in data set [1] (Scotchbond Multi-Purpose (SB), 1.25 wt % additive) it was 75.5 ± 1.5%. The “DC (%)” value in data set [1] (Scotchbond Multi-Purpose (SB), 1.5 wt % additive) is 55.0 ± 1.4%; in data set [1] (Scotchbond Multi-Purpose (SB), 2.0 wt % additive), 12.8 ± 3.1%. Further, the “Degree of Conversion (%)” value turned out to be 73.7 ± 0.6% in data set [1] (EBSE adhesive); 66.4 ± 0.7% in data set [1] (PBNT adhesive); 70.3 ± 0.5% in data set [1] (SBP adhesive); 72.5 ± 1.0% in data set [1] (SUP adhesive); 74.2 ± 1.1% in data set [1] (XIV adhesive). Further, the “effect on DC (in words)” value in data set [1] (approximately 0.1 wt % additive) is “enhances the DC of both adhesives”; in data set [1] (more than approximately 1.25 wt % additive (about 1.5 or 2 wt %)) it was “significant DC decrease”. In addition, the “Degree of Conversion” value in data set [1] (0.5 wt % additive) was found to be 74.5%. In addition, the “increase of Degree of Conversion” value in data set [1] (0.5 wt % additive) was 4.3%. Further, the “glass transition temperature (Tg)” value in data set [2] (setting [5]) is recorded as “increases”. In addition, the “tan δ peak” value is listed as “narrowed” in data set [2] (setting [5]) and “narrowed” in data set [2] (SB, approximately 0.25 wt % additive). For the same compound, the ΔH result in data set [3] (SB, approximately 0.25 wt % additive, PCE-exposed, after 72 hours) is on record as “about 60 nm”; in data set [3] (SB, approximately 0.25 wt % additive, control solution without PCE, after 72 hours), “about 50 nm”; in data set [4] (B6H4 with CQ/4E, approximately 0.25 wt % additive, control, after 72 hours) it was “about 50 nm”; in data set [4] (B6H4 with CQ/4E, approximately 0.25 wt % additive, exposed to PCE, after 72 hours), “about 70 nm”. In addition, in data set [4] (adhesives PBNT, SBP, SUP, EBSE and XIV, approximately 0.25 wt % additive versus no additive (FIGS. 8-12)), the “effect on ΔH values (in words)” value is reported as “decreased the ΔH values”.

`CC(C)C(=O)Oc1ccc(/N=N/c2cc[n+](CCCCCBr)cc2)cc1.[Br-]` [Br-C6-Azo-Py-iBu]: in data set [1] (0.5 wt % additive), the “Degree of Conversion” value came out at 75.1% and the “increase of Degree of Conversion” value was 4.9%.

Take `C=C(C)C(=O)OCCCCCC[n+]1ccc(/N=N/c2ccc(OC(=O)C(C)C)cc2)cc1.[Br-]` [MA-C6-Azo-Py-iBu]: the “Degree of Conversion” value in data set [1] (0.5 wt % additive) was 74.9%. For the same compound, in data set [1] (0.5 wt % additive), the “increase of Degree of Conversion” value is 4.7%. For the same compound, the ΔH in data set [3] (Scotchbond (SB), PCE (FIG. 7)) is around 70 nm; in data set [3] (Scotchbond (SB), control (FIG. 7)), “approximately 50 nm”; in data set [4] (B6H4, approximately 0.25 wt % additive, PCE (FIG. 6)) it was around 65 nm; in data set [4] (B6H4, approximately 0.25 wt % additive, control (FIG. 6)), “approximately 50 nm”.

With `C=C(C)C(=O)OCCNC(=O)OCCCCCCCC[n+]1ccc(/N=N/c2ccc(OC(=O)C(C)C)cc2)cc1.[Br-]` [MA-CB13-Azo-QPS-iBu], in data set [1] (0.5 wt % additive), the “Degree of Conversion” value is 70.7% and the “increase of Degree of Conversion” value is on record as 0.5%. Further, the “biostability of the adhesives (in words)” value in data set [3] (added to dental adhesives) is reported as “has not been demonstrated to improve the biostability”.

As for `c1ccc(/N=N/c2ccccc2)cc1` [reference compound], in data set [1], the “change” value is given as “No change”.

As for `c1cc(N=Nc2ccncc2)ccn1` [reference compound], the “change” value in data set [1] was “No change”.

With `c1cc(CCc2ccncc2)ccn1` [reference compound], the “change” value in data set [1] was “No change”.
